Source: paper PMC6934184, “Selective DNA-PKcs inhibition extends the therapeutic index of localized radiotherapy and chemotherapy” (The Journal of Clinical Investigation, 2019)

Target: T1, PRKCE (PKC epsilon) (Homo sapiens, UniProt Q02156)
T1 construct: purchased Thermo Fisher Scientific (Life Technologies) SelectScreen
Assay: SelectScreen Z'LYTE
Type: biochemical
Procedure, shortened: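 Percent values come from Thermo SelectScreen profiling of NU5455, combining activity and binding assays. CSF1R was run in Z'LYTE format at Km app ATP, and CAMK1 in Adapta format with ATP listed at 10.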

T1 sequence (Q02156 whole entry): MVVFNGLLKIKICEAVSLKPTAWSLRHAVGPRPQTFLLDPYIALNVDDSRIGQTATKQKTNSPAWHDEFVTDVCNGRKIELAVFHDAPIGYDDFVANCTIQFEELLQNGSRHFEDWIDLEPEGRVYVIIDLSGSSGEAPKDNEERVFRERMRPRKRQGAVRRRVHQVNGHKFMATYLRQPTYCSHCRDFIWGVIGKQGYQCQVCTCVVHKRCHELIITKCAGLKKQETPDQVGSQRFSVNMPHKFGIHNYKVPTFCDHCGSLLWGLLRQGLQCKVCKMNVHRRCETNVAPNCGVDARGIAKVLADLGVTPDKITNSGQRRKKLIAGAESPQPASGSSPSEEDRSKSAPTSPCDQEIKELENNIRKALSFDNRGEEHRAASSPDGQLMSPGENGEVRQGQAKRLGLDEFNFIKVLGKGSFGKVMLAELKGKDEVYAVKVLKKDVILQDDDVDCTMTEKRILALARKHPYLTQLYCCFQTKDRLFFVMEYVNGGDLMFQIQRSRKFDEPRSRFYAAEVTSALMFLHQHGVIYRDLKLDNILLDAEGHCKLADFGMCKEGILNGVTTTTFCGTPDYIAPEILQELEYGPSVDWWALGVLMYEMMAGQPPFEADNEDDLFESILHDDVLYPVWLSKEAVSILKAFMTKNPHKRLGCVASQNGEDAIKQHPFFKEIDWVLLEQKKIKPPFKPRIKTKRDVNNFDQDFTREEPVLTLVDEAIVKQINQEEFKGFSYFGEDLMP

## CN(C(=O)CN1CCOCC1)c1ccc2sc3c(-c4cccc5c(=O)cc(N6CC7CCC(C6)O7)oc45)cccc3c2c1 [NU5455]
  inhibition at 1 µM: -4.9%
